# “Also recorded” adds a separate entry of the source.
# Tested on: human blood bacterium (HBB)
# Format: cell-based
# Settings: not given
# Method: Normally 1 ml of serum was added to 9 ml of medium. Larger flasks with a proportionately larger amount of serum and medium are used to produce bacteria in quantity. Modulators might be added to some flasks in 10× or higher concentration (corresponding to addition of 1 ml or less). When examining the effect of modulators, control flasks were prepared similarly without the addition of the modulator. Levels were observed microscopically (inverted phase microscope, observing the number of organisms per field crudely or by actual count) after incubation, typically at several points in time.
# When multiple comparisons were done at once, they were done in 12 well or 24 well cell culture plates, most often the latter. With the latter, typically 1 ml of medium inoculated with serum is added to each well, with modulators added at 10× or higher concentration (0.1 ml or less). When comparisons are done in well plates, control wells without any additions are included. Levels were observed microscopically (inverted phase microscope) after incubation, typically at several points in time. The well plate cultures were also used for antibiotic sensitivity testing.
# These procedures are those known in the art and include uses of antibodies and DNA probes, Western and Southern blots, PCR and the diagnostic kits therefor. First, organisms can be quantified by culture. […] If a means is found to immobilize the bacteria to grow isolated colonies, counts will be more accurate. Quantification is used to follow the progress of treatment and to correlate HBB levels with specific disease syndromes. Quantification is used also for antibiotic sensitivity measurements, comparing the level of growth with antibiotic treatment to the level of growth without treatment. Such antibiotic sensitivity measurements establish the basis for the clinical choice of antibiotic drugs.
Compound,"observed antibiotic and antifungal sensitivities (outcome, number of isolates)",antibiotic sensitivity of HBB strains/isolates in culture
CC1=C(C(=O)O)N2C(=O)[C@@H](NC(=O)[C@H](N)c3ccccc3)[C@H]2SC1 [cephalexin],no effect (1 isolate),–
CC[C@H]1OC(=O)[C@H](C)[C@@H](O[C@H]2C[C@@](C)(OC)[C@@H](O)[C@H](C)O2)[C@H](C)[C@@H](O[C@@H]2O[C@H](C)C[C@H](N(C)C)[C@H]2O)[C@](C)(O)C[C@@H](C)CN(C)[C@H](C)[C@@H](O)[C@]1(C)O [azothromycin],no effect (6 isolates); also recorded: sensitive (7 isolates),some strains show sensitivity; also recorded: often stimulate growth
Nc1ccc(S(=O)(=O)c2ccc(N)cc2)cc1 [dapsone],no effect (1 isolate),–

# Same assay, conditions: 2 μg/ml
row,Compound,"observed antibiotic and antifungal sensitivities (outcome, number of isolates)"
1,Cc1onc(-c2ccccc2Cl)c1C(=O)N[C@@H]1C(=O)N2[C@@H]1SC(C)(C)[C@@H]2C(=O)O [cloxacillin],no effect (16 isolates); also recorded: sensitive (5 isolates); also recorded: growth stimulated (6 isolates)
2,NNC(=O)c1ccncc1 [isoniazid],no effect (24 isolates); also recorded: sensitive (5 isolates); also recorded: growth stimulated (6 isolates)
3,gentamycin,no effect (1 isolate)

# Same assay, conditions: 1-2 μg/ml
row,Compound,"observed antibiotic and antifungal sensitivities (outcome, number of isolates)"
1,CC1(C)S[C@@H]2[C@H](NC(=O)COc3ccccc3)C(=O)N2[C@H]1C(=O)O [penicillin V],no effect (27 isolates); also recorded: sensitive (17 isolates); also recorded: growth stimulated (4 isolates)

# Same assay, conditions: concentration not printed
row,Compound,antibiotic sensitivity of HBB strains/isolates in culture
1,Cc1onc(-c2ccccc2Cl)c1C(=O)N[C@@H]1C(=O)N2[C@@H]1SC(C)(C)[C@@H]2C(=O)O [cloxacillin],occasional isolates show higher sensitivity
2,CC1(C)S[C@@H]2[C@H](NC(=O)COc3ccccc3)C(=O)N2[C@H]1C(=O)O [penicillin V],relatively sensitive
3,NNC(=O)c1ccncc1 [isoniazid],some isolates are sensitive

# Tested on: human blood bacterium (HBB)
# Format: cell-based
# Settings: not given
# Remark: another data set of the same source
Compound,effect on HBB growth in culture,effect on reduction of cell wall-defective forms,optimum concentration for stimulation of HBB growth [µg/mL]
[Fe] [iron],stimulated,–,–
CC(C)CCO [isoamyl alcohol],Some stimulation of growth,–,–
C[C@@H](O[C@H]1[C@H](O)[C@@H](CO)OC(O)[C@@H]1N)C(=O)O (stereo partly drawn) [muramic acid],–,no effect,–
OO [hydrogen peroxide],might also be stimulated,–,–
CSCC[C@H](N)C(=O)O [methionine],appears to do so less consistently,–,–
CCCCO [n-butanol],Some stimulation of growth,–,–
NCCCNCCCCNCCCN [spermine],Little or no stimulation or inhibition,–,–
"[N-]=[N+]=[N-] [azide, reference compound]",little effect on growth,–,–
C1COCCN1 [morpholine],slight stimulation,–,–
CN(C)c1ccc2nc3ccc(=[N+](C)C)cc-3sc2c1 [methylene blue],Little or no stimulation or inhibition,–,–
[Mn+2] [manganese],stimulated,–,1
(oxidized) arachidonate,might also be stimulated,–,–
N.N.O=S(=O)(O)O [ammonium sulfate],Little or no stimulation or inhibition; also recorded: no effect,–,–
CO [methanol],minimal or no stimulation of growth,–,–
mercury,possibly; also recorded: stimulated,–,–
CC(=O)N[C@@H](CS)C(=O)O [N-acetyl cysteine],Little or no stimulation or inhibition; also recorded: no significant effect,–,–
titanium ethoxide,slight stimulation,–,–
CCO [ethanol],Some stimulation of growth,–,–
OCCS [2-mercaptoethanol],no significant effect,–,–
"NC12CC3CC(CC(C3)C1)C2 [amantadine, reference compound]",Little or no stimulation or inhibition,–,–

# Same assay, conditions: 2 μg/ml
row,Compound,effect on HBB growth in culture
1,C[N+](C)(C)C[C@H](O)CC(=O)[O-] [L-carnitine],Little or no stimulation or inhibition

# Same assay, conditions: 3 μg/ml
row,Compound,effect on HBB growth in culture
1,NCCOP(=O)(O)O [phosphorylethanolamine],Little or no stimulation or inhibition

# Same assay, conditions: 4 μg/ml
row,Compound,effect on HBB growth in culture
1,O=C(O)c1cc(=O)[nH]c(=O)[nH]1 [orotic acid],Little or no stimulation or inhibition

# Same assay, conditions: 10 μg/ml
row,Compound,effect on HBB growth in culture
1,OCCS [2-mercaptoethanol],Little or no stimulation or inhibition
2,O[C@@H](CS)[C@@H](O)CS [dithiotheitol],Little or no stimulation or inhibition

# Same assay, conditions: 14 μg/ml
row,Compound,effect on HBB growth in culture
1,CCN(CC)CN(CC)CC [tetraethylmethylenediamine],slight stimulation
2,O=BOB(O)OB(O)OB=O [borax],Little or no stimulation or inhibition
3,O=c1ccc2[n+]([O-])c3ccc(O)cc3oc-2c1 [resazurin],Little or no stimulation or inhibition

# Same assay, conditions: 20 μg/ml
row,Compound,effect on HBB growth in culture
1,N[C@@H](CS)C(=O)O [cysteine],Little or no stimulation or inhibition
2,NCCS(=O)(=O)O [taurine],Little or no stimulation or inhibition

# Same assay, conditions: 20 μg/ml; listed as Cysteine
row,Compound,effect on HBB growth in culture
1,N[C@@H](CS)C(=O)O [cysteine],appears to inhibit growth in some isolates

# Same assay, conditions: 1/14 saturated
row,Compound,effect on HBB growth in culture
1,c1ccc(Nc2ccccc2)cc1 [diphenylamine],slight stimulation
2,O=C(c1ccccc1)c1ccccc1 [benzophenone],slight stimulation
3,dichlorophenylenediamine,Little or no stimulation or inhibition

# Same assay, conditions: added to ½ strength medium O or RPMI
row,Compound,effect on HBB growth in culture
1,CN(C)C [trimethylamine],minimal or no stimulation of growth
2,COP(=O)(OC)OC [trimethyl phosphate],minimal or no stimulation of growth
3,COC(C)=O [methyl acetate],minimal or no stimulation of growth

# Same assay, conditions: addition of cell wall precursors
row,Compound,effect on reduction of cell wall-defective forms
1,CC(=O)N[C@H]1C(O)O[C@H](CO)[C@@H](O)[C@@H]1O (stereo partly drawn) [N-acetylglucosamine],no effect
2,CC(=O)N[C@H]1C(O)O[C@H](CO)[C@@H](O)[C@@H]1O[C@H](C)C(=O)O (stereo partly drawn) [N-acetylmuramic acid],no effect
3,CC(=O)N[C@H]1C(O)O[C@H](CO)[C@@H](O[C@@H]2O[C@H](CO)[C@H](O)[C@H](O)[C@H]2O)[C@@H]1O (stereo partly drawn) [N-acetyllactoasamine],no effect
4,N[C@H](CCC[C@H](N)C(=O)O)C(=O)O [diaminopimelic acid],no effect

# Same assay, conditions: concentration not printed
row,Compound,effect on HBB growth in culture
1,[Cr] [chromium],no inhibition of bacterial growth
2,N[C@@H](CS)C(=O)O [cysteine],suppresses growth of some strains; also recorded: stimulates other strains
3,chromium picolinate,Little or no stimulation or inhibition
4,O=C(CO)[C@@H](O)[C@H](O)[C@H](O)CO [fructose],support growth
5,silver proteinate,Little or no stimulation or inhibition
6,O=C(O)c1ccccn1 [picolinic acid],Little or no stimulation or inhibition
7,dextran,support growth
8,[Cu] [copper],stimulated
9,[Mg+2] [magnesium],little effect on the growth
10,[Sn] [tin],stimulated
11,NCCS(=O)(=O)O [taurine],no effect on cultures
12,[Zn] [zinc],suppresses the growth; also recorded: inhibited
13,OC[C@H]1O[C@@](CO)(O[C@H]2O[C@H](CO)[C@@H](O)[C@H](O)[C@H]2O)[C@@H](O)[C@@H]1O [sucrose],support growth
14,CC(=O)N[C@H]1C(O)O[C@H](CO)[C@@H](O[C@@H]2O[C@H](CO)[C@H](O)[C@H](O)[C@H]2O)[C@@H]1O (stereo partly drawn) [N-acetyllactoasamine],some stimulation of culture growth
15,OC[C@H]1O[C@H](OC[C@H]2O[C@H](O[C@]3(CO)O[C@H](CO)[C@@H](O)[C@@H]3O)[C@H](O)[C@@H](O)[C@@H]2O)[C@H](O)[C@@H](O)[C@H]1O [raffinose],support growth
16,[Ag] [silver],stimulated
17,OC[C@H]1O[C@H](OCC2O[C@@H](O)[C@H](O)[C@@H](O)[C@@H]2O)[C@H](O)[C@@H](O)[C@H]1O (stereo partly drawn) [meilibose],support growth
18,O[C@@H](CS)[C@@H](O)CS [dithiotheitol],no significant effect
19,"CN(Cc1cnc2nc(N)nc(N)c2n1)c1ccc(C(=O)N[C@@H](CCC(=O)O)C(=O)O)cc1 [methotrexate, reference compound]",no inhibition
20,[I-].[K+] [potassium iodide],Little or no stimulation or inhibition
21,OC[C@H]1O[C@@H](O[C@H]2[C@H](O)[C@@H](O)C(O)O[C@@H]2CO)[C@H](O)[C@@H](O)[C@H]1O (stereo partly drawn) [lactose],support growth

# Same assay, conditions: ⅕ saturated
row,Compound,effect on HBB growth in culture
1,COC1=C(OC)C(=O)C(C/C=C(\C)CC/C=C(\C)CC/C=C(\C)CC/C=C(\C)CC/C=C(\C)CC/C=C(\C)CC/C=C(\C)CC/C=C(\C)CC/C=C(\C)CCC=C(C)C)=C(C)C1=O [ubiquinone (Q10)],slight stimulation
